Patent publication US20250325563A1, “METHODS FOR TREATING METABOLIC SYNDROME” (priority 2023, published 2025)

Experiments:
HFD-fed mice [1] = assay: Visceral and subcutaneous fat volumes by MRI (Example 3); format: in vivo, C57BL/6J mice; conditions: 15 μg/kg i.p. twice a week for 16 weeks, n=5
Experimental: (§1) Mice were group-housed (4-5 mice per cage) on a proper temperature control of 24-26° C. with a 12 h light/dark cycle with food and water available ad libidum.
Abdominal area of animals was scanned for assessing visceral and subcutaneous fat loading by using magnetic resonance imaging system (MRI, Bruker BioSpin Group, Bruker Corporations, Germany) before experiment and then once a month during the experiment. The study procedure was conducted as follows: mice (n=5 per group) were anesthetized using isoflurane (1.5-2.5% in 1.5 l/min medical oxygen) and placed on a heated animal bed throughout the MRI procedure. Scans were performed using a 9.4T Bruker BioSpec 94/21 USR system connected to a 1H circular polarized transceiver coil and running Para Vision 6.0.1® software (Bruker BioSpin Group, Bruker Corporation, Germany). Respiration was monitored using a respiration pillow (SA Instruments Inc., Stony Brook, USA) and respiration rate was maintained at between 35-70 breaths per minute. Two orientation pilot scans were performed in order to establish the position of the animal and identify anatomical landmarks relevant for planning the subsequent scan. The final Tl-weighted Bruker: RARE sequence was performed using the following parameters: repetition time (TR) 1164 ms, echo time (TE) 6 ms, flip angle 90 degrees, number of averages 2, imaging matrix 320×320×40, spatial resolution 0.125×0.125×0.5 mm. Volumes were segmented manually by an observer blinded to the experiment using ITK-SNAP (V3.8.0). A 40× zoom was used to measure visceral and subcutaneous fat volume, and renal onset was the starting point for the fat volume analysis.

HFD-fed mice [2] = format: in vivo, C57BL/6J mice; conditions: 15 μg/kg i.p. twice a week for 16 weeks; for Epididymal fat, absolute organ weight / Epididymal fat, normalized organ weight (organ weight/body weight) / Liver, absolute organ weight / Liver, normalized organ weight (organ weight/body weight): mean ± SEM, n=10
Experimental: as §1

HFD-fed mice [3] = assay: Blood metabolic markers in serum (Example 5); format: in vivo, C57BL/6J mice; conditions: for HDL in serum / LDL in serum / Total cholesterol in serum / Triglycerides in serum: 15 μg/kg i.p. twice a week, study week 16
Experimental: as §1
The mice were deeply anesthetized with a terminal dosage of phenobarbital (200-300 mg/kg)24 h after the last study treatment administration and the blood samples were collected from all groups of mice via cardiac puncture using a standardized protocol. Collected blood was allowed to coagulate before centrifugation at 2000×g for 20 min after which the serum was stored at −80° C. until the analysis.

[4] = Body weight of mice on daily i.p. administration for 6 days (Example 1); format: in vivo, C57BL/6J mice; conditions: for Mean body weight: N=10
Experimental: Two months old male C57BL/6J mice were housed (4-5 mice per cage) with food and water available ad libidum at a temperature control of 24-26° C. and a 12 h light/dark cycle. 3-4 days before the start of the study, the mice were randomized into 3 experimental groups (N=10 per group) using online randomization tool (Graph Pad, USA). Body weights of each animal were measured once a day during the entire study, their health conditions were assessed at the same time. Elocalcitol (100 μg/kg), vitamin D3 (cholecalciferol,100 μg/kg), or vehicle control were administrated intraperitoneally once a day for 6 days.

HFD-fed mice [5] = assay: Prevention of total body weight gain in high-fat diet mice (Example 2); format: in vivo, C57BL/6J mice
Experimental: Mice were group-housed (4-5 mice per cage) on a proper temperature control of 24-26° C. with a 12 h light/dark cycle with food and water available ad libidum. […] Body weight was measured once a week and the amount of food and water consumed by the animals was measured once a month.

HFD-fed mice [6] = assay: Glucose tolerance test (GTT); format: in vivo, C57BL/6J mice; conditions: glucose 2 g/kg i.p.; study week 16; 15 μg/kg i.p. twice a week
Experimental: as §1
(§2) For GTT, mice were fasted overnight for 10-12 h and blood glucose was measured from the tail blood using Accu-Chek Performa system glucose meter (Roche, Germany) and the baseline glucose values (0 min) were recorded. The animals were then injected intraperitoneally with glucose (2 g/kg) and after glucose injection the blood glucose was measured from tail blood according to this schedule: 15, 30, 60, 90, and 120 min.

HFD-fed mice [7] = assay: Insulin tolerance test (ITT); format: in vivo, C57BL/6J mice; conditions: insulin 0,5 U/kg i.p.; study week 16; 15 μg/kg i.p. twice a week
Experimental: as §1
as §2, with “Insulin tolerance test (ITT) was performed at the end of the study (study week 16). For” for “For”, “ITT,” for “GTT,”, “fasted” for “fasted overnight”, “6” for “10-12”, “insulin (0,5 U/kg; diluted from 100 U/ml (Novorapid, Novo Nordisk A/S) with saline 0.9%)” for “glucose (2 g/kg)”

[8] = prolonged use; cited from earlier work
NF-κB = conditions: Penna et al., 2009; cited from earlier work
[9] = 15 μg/kg i.p. twice a week for 16 weeks
[10] = 100 μg/kg i.p. once a day for 6 days
[11] = admin. day 0 (administration start), 100 μg/kg i.p. once a day
[12] = admin. day 1, 100 μg/kg i.p. once a day
[13] = admin. day 2, 100 μg/kg i.p. once a day
[14] = admin. day 3, 100 μg/kg i.p. once a day
[15] = admin. day 4, 100 μg/kg i.p. once a day
[16] = admin. day 5, 100 μg/kg i.p. once a day
[17] = admin. day 6, 100 μg/kg i.p. once a day
[18] = admin. day −1, before administration start, 100 μg/kg group
[19] = admin. day −2, before administration start, 100 μg/kg group
[20] = admin. day −3, before administration start, 100 μg/kg group
[21] = admin. day −4, before administration start, 100 μg/kg group
[22] = day 7, after administration stopped on day 6
[23] = day 7, after administration stopped on day 6, 100 μg/kg i.p.
[24] = day 8, after administration stopped on day 6
[25] = day 8, after administration stopped on day 6, 100 μg/kg i.p.

C=C1/C(=C\C=C2/CCC[C@]3(C)[C@@H]([C@H](C)CCCC(C)(C)O)CC[C@@H]23)C[C@@H](O)C[C@@H]1O [1,25 (OH)2D3, 1,25-dihydroxycholecalciferol, reference compound]
Subcutaneous fat level (MRI) compared to the HFD group (HFD-fed mice [1]): no statistically significant effect
Visceral fat level (MRI) compared to the HFD group (HFD-fed mice [1]): no statistically significant effect
Epididymal fat, absolute organ weight (HFD-fed mice [2]): 1874 mg
Epididymal fat, normalized organ weight (organ weight/body weight) (HFD-fed mice [2]): 49.67 mg/g
Liver, absolute organ weight (HFD-fed mice [2]): 1374 mg
Liver, normalized organ weight (organ weight/body weight) (HFD-fed mice [2]): 36.03 mg/g
Effect on triglyceride levels (HFD-fed mice [3]; [9]): lowered the triglyceride levels similar to the ones in the LFD group
HDL in serum (HFD-fed mice [3]): 3.57 mmol/L
LDL in serum (HFD-fed mice [3]): 0.82 mmol/L
Total cholesterol in serum (HFD-fed mice [3]): 4.44 mmol/L
Triglycerides in serum (HFD-fed mice [3]): 0.68 mmol/L

C=C1CC[C@H](O)C/C1=C/C=C1\CCC[C@]2(C)[C@@H]([C@H](C)CCCC(C)C)CC[C@@H]12 [Vitamin D3, cholecalciferol, reference compound]
Weight loss observed [4, 10]: No weight loss was observed
Mean body weight [4, 11]: 23.80 g
Weight change % [4, 12]: −0.84%
Mean body weight [4, 12]: 23.60 g
Weight change % [4, 13]: +0.84%
Mean body weight [4, 13]: 24.00 g
Weight change % [4, 14]: 0%
Mean body weight [4, 14]: 23.80 g
Weight change % [4, 15]: +0.84%
Mean body weight [4, 15]: 24.00 g
Weight change % [4, 16]: +1.68%
Mean body weight [4, 16]: 24.20 g
Weight change % [4, 17]: +2.52%
Mean body weight [4, 17]: 24.40 g
Mean body weight [4, 18]: 23.70 g
Mean body weight [4, 19]: 23.50 g
Mean body weight [4, 20]: 23.50 g
Mean body weight [4, 21]: 23.40 g
Weight change % [4, 22]: +2.94%
Mean body weight [4, 23]: 24.50 g
Weight change % [4, 24]: +3.78%
Mean body weight [4, 25]: 24.70 g

C=C1/C(=C\C=C2/CCC[C@]3(C)C([C@@H](C)C/C=C/C(O)(CC)CC)=CC[C@@H]23)C[C@@H](O)C[C@@H]1F [elocalcitol]
Average body weight after administration was stopped on Day 6 [4, 10]: returned to normal within two days
Mean body weight [4, 11]: 21.50 g
Weight change % [4, 12]: +1.4%
Mean body weight [4, 12]: 21.80 g
Weight change % [4, 13]: −1.4%
Mean body weight [4, 13]: 21.20 g
Weight change % [4, 14]: −5.58%
Mean body weight [4, 14]: 20.30 g
Weight change % [4, 15]: −10.7%
Mean body weight [4, 15]: 19.20 g
Weight change % [4, 16]: −14.42%
Mean body weight [4, 16]: 18.40 g
Weight change % [4, 17]: −18.6%
Mean body weight [4, 17]: 17.50 g
Mean body weight [4, 18]: 21.60 g
Mean body weight [4, 19]: 21.70 g
Mean body weight [4, 20]: 21.60 g
Mean body weight [4, 21]: 21.40 g
Drop of average body weight ([4]; by treatment Day 4, 100 μg/kg i.p. once a day): 10.7%
Average decrease in body weight ([4]; by treatment Day 6, 100 μg/kg i.p. once a day): 18.6%
Weight change % [4, 22]: −16.75%
Mean body weight [4, 23]: 17.90 g
Weight change % [4, 24]: −1.07%
Mean body weight [4, 25]: 19.20 g
Study week at which inhibition of the HFD-induced weight gain reaches statistical significance (HFD-fed mice [5]; 15 μg/kg i.p. twice a week): 7 study week
Lower relative weight gain compared to the vehicle treated HFD mice (HFD-fed mice [5]; 15 μg/kg i.p. twice a week for 16 weeks, study week 16): 20%
Subcutaneous fat level (MRI) compared to the HFD group (HFD-fed mice [1]): significant decrease
Visceral and subcutaneous fat relative to the LFD mice (HFD-fed mice [1]): reversed the visceral and subcutaneous fat of the HFD mice to the levels observed in the LFD mice
Visceral fat level (MRI) compared to the HFD group (HFD-fed mice [1]): significant decrease
Weights of epididymal fat deposits at the study end, group comparison (HFD-fed mice [2]): significantly lower than those in the HFD and HFD+vitD groups
Epididymal fat, absolute organ weight (HFD-fed mice [2]): 1312 mg
Epididymal fat, normalized organ weight (organ weight/body weight) (HFD-fed mice [2]): 36.29 mg/g
Liver, absolute organ weight (HFD-fed mice [2]): 1412 mg
Liver, normalized organ weight (organ weight/body weight) (HFD-fed mice [2]): 39.45 mg/g
Glucose tolerance of the HFD-fed mice (glucose AUC analysis) (HFD-fed mice [6]): statistically significant improvement
Increased insulin resistance observed in the HFD (insulin tolerance test) (HFD-fed mice [7]): reverses the increased insulin resistance observed in the HFD in a statistically significant manner
Effect on cholesterol (the combined HDL and LDL) (HFD-fed mice [3]; [9]): statistically significant cholesterol (the combined HDL and LDL) lowering effect
Effect on triglyceride levels (HFD-fed mice [3]; [9]): lowered the triglyceride levels similar to the ones in the LFD group
HDL in serum (HFD-fed mice [3]): 2.99 mmol/L
LDL in serum (HFD-fed mice [3]): 0.73 mmol/L
Total cholesterol in serum (HFD-fed mice [3]): 3.88 mmol/L
Triglycerides in serum (HFD-fed mice [3]): 0.87 mmol/L
Oral dose above which hypercalcemia may ensue [8]: higher than 300 μg per day
NF-κB inhibition (NF-κB): inhibits NF-κB by blocking the nuclear translocation of the p65 subunit
